# Measured values as given in patent US20070172453A1, “Tolerogenic approach for type 1 diabetes” (priority 2002, published 2007).
# What was measured:
# [1] = system: CD4-mediated, HLA-II restricted immune response; conditions: patients with IDDM; cited from earlier work
# [2] = system: peripheral blood mononuclear cells (PBMCs); experiment: ELISPOT of IFN-γ and IL-10 secreting cells in PBMCs of DQ8+ type 1 diabetic adolescents; assay type: cell-based, human; conditions: for number of IFN-γ secreting cells / number of IL-10 secreting cells / ratio of IL-10/IFN-γ: peptide 50 μM, DQ8+ type 1 diabetic adolescents; for number of IFN-γ secreting cells / number of IL-10 secreting cells: 48 hours, 1×10^5 PBMCs/well, ±SEM
# Procedure: Ten diabetic patients were selected (6 females, 4 males; age range: 7-16 years of age) which were positive for the DQ8 allele. With the assistance of endocrine pediatricians, appropriate arrangements were made for two sampling sessions. Written and informed consent was obtained from the parents of the adolescents. For each patient, 20 ml of blood was collected in tubes containing EDTA. These tubes were immediately sent to Cypro SA (Brussels) where peripheral blood mononuclear cells (PBMCs) were isolated using the Lymphoprep™ (Invitrogen) isolation technique.
# ELISPOT Assays (Cypro): The general methodology has been described by Tary-Lehmann et al. (see, e.g., Tary-Lahmann et al. (1998) Transplantation 66:219-224). Briefly, PBMCs were seeded at a concentration of 1×10^5/well in 96-well plates coated with anti-human IFN-γ monoclonal antibody (mAb) (Serpime/Nodia) or anti-IL-10 mAb (BD-Pharmingen) in the presence or absence of either PHA (Sigma, 1 μg/ml)+LPS (Sigma, 1 μg/ml), Purified Protein Derivative (PPD, 5 μg/ml), Insulin B9-23 (SEQ ID NO:3 ) (10 and 50 μM), IGF-2 B11-25 (SEQ ID NO:2 )(10 and 50 μM After 48 hours of incubation at 37° C., 5% CO2 on a plane surface, wells were washed three times with PBS Tween 0.25%, then blot dried.
# After 1 hour-incubation in a humid room at ambient temperature, the plates were washed and the substrate AEC (3-amino-9-ethylcarazole)+30% H2O2 were added. After 15 minutes (for IFN-γ) or 30 minutes (for IL-10) of incubation at ambient temperature, spots appeared and the reaction was stopped by washing the plates under water. After drying, the spots were counted by image analyzer assisted by computer with filters specific for each cytokine.
# A Wilcoxon test was used for statistical analyses (non-parametric paired values).
# [3] = system: NOD mice; conditions: cited from earlier work
# [4] = system: peripheral blood mononuclear cells (PBMCs); experiment: ELISpot of IL-10 secreting cells in PBMCs from healthy controls and adult Type 1 diabetics; assay type: cell-based, human; conditions: 50 μM, 48h
# Procedure: In comparison to the Insulin B9-23 peptide (SEQ ID NO:3), the presentation of IGF-2 B11-25 (SEQ ID NO:2) increases the number of IL-10 secreting cells in peripheral blood mononuclear cells (PBMCs) from adult Type I diabetics. PBMCs were isolated by a conventional method from the blood of 6 healthy controls and 18 adult Type 1 diabetic patients. The PBMCs were cultured for 48h in 96-well dishes in the presence of IGF-2 B11-25 (SEQ ID NO:2)(50 μM) or […] (50 μM).
# The data are presented in FIG. 4 as the number of spots per 10^5 cells. Statistical analyses were performed using Wilcoxon's test.
# [5] = system: spleen cells from Igf2-/- and wt mice; experiment: IL-2 production by IGF-2-specific T cells (spleen cells) after immunization and in vitro stimulation; assay type: cell-based, mouse; conditions: spleen cells in culture with murine IGF-2-derived B11-25 after two i.p. injections
# Procedure: (§1) Mice immunization. Igf2^−/− and wt mice were injected i.p. with 5 μg of rmIGF-2 (R&D Systems) or with 5 μg of human insulin (Roche) to study the humoral response and with 50 μg of murine IGF-2-derived B11-25 (NEOSYSTEM)(SEQ ID NO:2) to analyze the cellular response. CFA (Sigma-Aldrich) (v/v) is used for the first injection and IFA (Sigma-Aldrich) (v/v) for the other injections. For humoral response, three injections separated by 20 days were performed. Blood test was performed 15 days after each injection in agreement with the Liege University ethic committee. For cellular response, two injections separated by 15 days were performed.
# IL-2 production. After 48, 72, and 96 h of MLR or after 24 and 48 h of specific T cell culture, 800 μl were removed of each condition and IL-2 production released by Igf2^−/− and wt T cells in MLR was assessed by specific ELISA (Biosource Europe).
# Statistical analyses. The t test was used to compare Igf2^−/− and wt mice in IL-2 production and Ab production after immunization. The level of significance was p<0.05.
# [6] = system: PBMCs; experiment: IL10 transcription in PBMCs by TaqMan real-time PCR; assay type: cell-based, human; conditions: 50 μM, 20 hours
# Procedure: Total RNA was extracted with the RNeasy Mini Kit (Qiagen, Calif., USA) from PBMCs isolated from 10 healthy controls and from 11 Type 1 diabetics, and cultured for 20 hours with IGF-2 B11-25 (SEQ ID NO:2)(50 μM) or Insulin B9-23 (SEQ ID NO:3 ) (50 μM). Total RNA was measured with a Nanodrop (NanoDrop Technologies, Wilmington, USA). Reverse transcription was performed with Transcriptor First Strand cDNA Synthesis Kit (Roche, Germany). PCR was performed with the following probes:
# IL10 transcripts were then quantified using a TaqMan procedure. Standard curves were established from a lot of plasmid containing IL10 according to the procedure described by other authors (Giulietti et al., Methods 25: 386, 2001). […] A strong positive relationship was evidenced between IL-10 concentrations as measured by ELISA and the number of IL10 transcripts as quantified by real-time PCR (R^2=0.62, P<0.0001; Spearman's test). Conclusions
# [7] = system: PBMCs; experiment: IL-10 concentration in PBMC culture supernatants by ELISA; assay type: cell-based, human; conditions: 20h-culture
# Procedure: PBMCs were isolated from the blood of 10 healthy controls and 13 adult type 1 diabetics. After a 20h-culture, IL-10 concentration in the supernatants was measured using a specific ELISA (BioSource, Nivelles, Belgium).
# [8] = system: Igf2-/- and wt mice; experiment: Anti-IGF-2 humoral response after i.p. immunization of Igf2-/- and wt mice (ELISA); assay type: in vivo, mouse; conditions: i.p. immunization 5 μg
# Procedure: as §1
# (§2) Dosage of anti-IGF-2 and anti-insulin Abs. Abs against IGF-2 and insulin were detected and quantified using a specific ELISA procedure. Microplates (Nunc Maxisorp 468667; VVWR International) were incubated overnight at 4° C. with 2 μg/ml rmIGF-2 (R&D Systems) or 5 μg/ml human insulin (Roche) in 100 μl of 0.1 M NaHCO3 (pH 8.4). From this step, the procedure was identical between the two kinds of ELISA. SL buffer (0.01 M phosphate buffer, pH 7.4) was used as the basic buffer, and all reactions were incubated at 37° C. under agitation. […] The reaction was stopped with 50 μl of 0.4 N HCl, and the absorbance was measured at 450-620 nm with a spectrophotometer.
# [9] = cited from earlier work
# [10] = system: Igf2-/- and wt mice; experiment: Anti-insulin humoral response after i.p. immunization of Igf2-/- and wt mice (ELISA); assay type: in vivo, mouse; conditions: three i.p. injections, mice with day 0 anti-insulin Ab lower than 1 in OD
# Procedure: as §1
# as §2, with “spectrophotometer. […]” for “spectrophotometer.”
substance,measurement,setting,value
"SHLVEALYLVCGERG (listed as Homo sapiens) [insulin B9-23, reference compound]",IFN-γ production in response to peptide presentation,[1],high production of IFN-γ
same,number of IFN-γ secreting cells,[2],88.90±23.82
same,number of IL-10 secreting cells,[2],701.8±160.9
same,ratio of IL-10/IFN-γ,[2],10.22±1.99
same,anaphylaxis,[3],induces fatal anaphylaxis
same,incidence of diabetes,[3],accelerates incidence of diabetes
GELVDTLQFVCGDRG (listed as Homo sapiens) [IGF-2 B11-25],number of IL-10 secreting cells versus Insulin B9-23,[4]; PBMCs from healthy controls,no significant difference
same,number of IL-10 secreting cells versus Insulin B9-23,[4]; PBMCs of adult Type 1 diabetics,significantly higher
same,"ratio IL-10/IFN-γ, fold higher than after insulin B9-23","[2]; 50 μM, versus insulin B9-23",~7 fold
same,number of IFN-γ secreting cells,[2],45.60±11.67
same,number of IL-10 secreting cells,[2],1162±208.6
same,ratio of IL-10/IFN-γ,[2],67.36±37.58
same,"IL-2 production, Igf2-/- compared with wt mice",[5],significant increase of IL-2 production
same,IL10 transcription,[6]; PBMCs from adult Type 1 diabetics,very significantly increases
same,IL10 transcription,[6]; PBMCs from healthy controls,very significantly increases
same,IL-10 concentration in supernatants versus basal conditions or Insulin B9-23,[7]; PBMC cultures from Type 1 diabetics,significantly increased
same,IL-10 concentration in supernatants versus basal conditions or Insulin B9-23,[7]; PBMC cultures from healthy controls,significantly increased
"IGF-2: rmIGF-2 (R&D Systems), insulin-like growth factor 2 used for mice immunization",anti-IGF-2 humoral response,[8]; Igf2-deficient mice,rapidly induced anti-IGF-2 Abs
same,"anti-IGF-2 T-dependent humoral response (IgG1, IgG2a, IgG2b)",[8]; wt mice,no T-dependent response was observed
insulin: human insulin (Roche) for mice immunization; insulin given orally or subcutaneously in cited trials,protection of residual β cell function,"[9]; oral administration, recent-onset IDDM",failed to protect the residual β cell function
same,delay or prevention of onset of disease,"[9]; subcutaneous administration, high-risk relatives of patients with IDDM",did not delay or prevent the onset of disease
same,"anti-insulin Ig-specific humoral response, Igf2-/- compared with Igf2+/+ mice",[10],higher anti-insulin Ig-specific humoral response
